The results in this text go back to patent publication US10597369B2, “Monosulfonic phenyltetrazole compounds with applications” (HANGZHOU JENNIFER BIOTECH CO., LTD., priority 2015, dated 2020).

Data set [1] in a line: Reagent stability assays (stored tetrazolium detection reagent tested with NADH, response at 450 nm). The data set is classed as physicochemical. Particulars: for lost activity: detection reagent after storage at 4° C. for a month, tested using 100 μM NADH in 50 mM Tris-Cl (pH 8); for changes in activity on storage: storage at −20° C. for up to a year, tested monthly in NADH titration. The method, then: The tetrazolium detection reagent (WST-8 or EZMTT) was stored at 4 and −20° C., respectively. Once a month, the stored tetrazolium detection reagent was tested using 100 μM NADH in 50 mM Tris-Cl (pH 8) and the response was measured at 450 nm.
For the stability test, the WST-8, EZMTT detection reagents were stored at 4° C. and −20° C. up to a year. Both reagents were tested in NADH titration every month for their activities.

Where a name gives a salt, the structure may show the parent alone.

The term melting point denotes the temperature, or range, at which the solid turns liquid.

`COc1cc([N+](=O)[O-])ccc1-[n+]1nc(-c2ccccc2S(=O)(=O)O)nn1-c1ccc([N+](=O)[O-])cc1` (as salt: sodium) [EZMTT, 2-(4-nitrophenyl)-3-(2-methoxy-4-nitrophenyl)-5 (2-sulfonic phenyl)-2H-tetrazolium monosodium salt]: the melting point came to 105 °C.

For the molecule `COc1cc([N+](=O)[O-])ccc1-[n+]1nc(-c2ccccc2S(=O)(=O)O)nn1-c1ccc([N+](=O)[O-])cc1` [EZMTT, 2-(4-nitrophenyl)-3-(2-methoxy-4-nitrophenyl)-5 (2-sulfonic phenyl)-2H-tetrazolium monosodium salt], in data set [1], the lost activity stood at 25% and the “changes in activity on storage” value was “essentially no changes in activity”.

Turning to `COc1cc([N+](=O)[O-])ccc1-[n+]1nc(-c2ccc(S(=O)(=O)[O-])cc2S(=O)(=O)[O-])nn1-c1ccc([N+](=O)[O-])cc1.[Na+]` [WST-8, 2-(3-(2-methoxy-4-nitrophenyl)-2-(4-nitrophenyl)-2H-tetrazolium)benzene disulfonate sodium salt, reference compound], in data set [1], the lost activity amounted to 60% and the “changes in activity on storage” value is on record as “essentially no changes in activity”.
